Laboratory results published in patent US11008291B2, “Methods of forming carbene-functionalized composite materials” (Queen's University at Kingston, priority 2015, dated 2021).

Experiments:
HSA = HSA (Homo sapiens, UniProt P02768); assay: Opioid/protein interactions on HSA-immobilized NHC-CM5 chip (SPR); assay type: binding; settings: for Detection of opioid on HSA surface of NHC-CM5 chip: 50, 100, 200, 400 μM, FIG. 21A-D
Protocol: NHC-CM5 chip was used for this study. HSA was immobilized using amine-coupling chemistry. […] Three 30s-injections of 50 mM NaOH was used to wash off non-covalently bound HSA and to further stabilize the baseline. […] Unmodified dextran surface was used as a reference surface.
Opioids were first serially diluted into running buffer to final concentrations of 50, 100, 200, 400 μM. To test data quality and further equilibrate the surfaces, 4 warm-up buffer cycles were performed at a flow rate of 30 μl/min. Opioids samples were injected over the reference and HSA surfaces at a flow rate of 30 μl/min. Replicate injections of each drug concentration were analyzed. Each cycle consisted of a 1-min waiting period for monitoring of the baseline stability. Then the drug/HSA complex was allowed to associate and dissociate for 60 s and 30 s, respectively. […] Data obtained in the reference flow cell was subtracted from that obtained in the HSA immobilized flow cell.

[1] = Bench stability and solubility of carbene precursors; assay type: physicochemical
[2] = Chemical stability tests of NHC films on Au(111) (XPS); assay type: physicochemical; settings: pH 2, THF 68° C., water RT 1 month, water 100° C., decalin, 1% H2O2; 24 h (FIGS. 7a-7g)
Protocol: All films were prepared using the hydrogen carbonate salt (carbene precursor) 3a and the solution deposition method previously described. Data for stability measurements are given in Chemical Stability Results.
NHC films derived from iPr2bimy(H)[HCO3] (3a) were submerged in freshly prepared unbuffered solutions of varying pH (pH 2 or pH 12) in Ace Glass pressure tubes at 25° C. for 24 h. Experiments were conducted under N2 gas to minimize the possibility of pH change due to adsorption of atmospheric CO2. After this time, functionalized surfaces were rinsed in deionized water (3×2 mL) and dried in an N2 gas stream. The pH values of the solutions were adjusted using concentrated NaOH and HCl solutions in deionized water. Unbuffered solutions were employed in order to avoid potential adsorption effects of buffer ions from solution.
NHC films derived from iPr2bimy(H)[HCO3] (3a) were placed in Ace Glass pressure tubes and 3 mL of freshly distilled tetrahydrofuran (THF) was added. The tube was purged with nitrogen gas, sealed and heated to 68° C. for 24 h. After this time, the sample was cooled to RT, rinsed in THF (2×5 mL), and dried under a nitrogen gas stream.
NHC films derived from iPr2bimy(H)[HCO3] (3a) were placed in Ace Glass pressure tubes and 2 mL of decalin were added. The tubes were purged with nitrogen gas, sealed and heated to either 100° C. or 190° C. for 24 h. […]

[3] = Temperature programmed desorption of NHC films from Au; assay type: physicochemical; settings: TPD, FIG. 2
Protocol: Vapor deposition experiments were conducted in three separate stainless steel UHV chambers hosting an Ar ion sputtering gun and annealing facilities for sample cleaning. TPD data were collected in a UHV chamber (base pressure P=[…]) equipped with a quadrupole mass spectrometer (SPECTRA, Microvision Plus) in direct line-of-sight with the crystal, and a LEED/Auger spectrometer (SpectaLEED, Omicron). STM images were recorded in a third chamber (base pressure=[…]) equipped with a variable temperature scanning tunneling microscope (Omicron), and LEED optics. An electrochemically etched W tip was used for STM imaging typically employing bias voltages of ±0.6 V and tunneling currents of 300 pA. Image processing and filtering have been applied to the STM data using WSxM.

[4] = target: bovine serum albumin (BSA) (Bos taurus, UniProt P02769); assay: Ferulic acid / BSA interaction on NHC-CM5 chip (SPR); assay type: binding; settings: 100, 200, 400, 800 μM; FIG. 20
Protocol: NHC-CM5 (500 KDa) chip was used for this study. Bovine Serum Albumin (BSA) was immobilized (covalently bound to the sensor surface) using amine-coupling chemistry. PBS (10 mM phosphate, 138 mM NaCl, 2.7 mM KCl, pH 7.4) was used as running buffer. […] Final immobilization level of BSA of this study was around 3500 RU. Unmodified dextran surface was used as a reference surface (FC1).
Ferulic acid was first serially diluted into running buffer to final concentrations of 100, 200, 400, 800 μM. To test data quality and further equilibrate the surfaces, four warm-up buffer cycles were performed at a flow rate of 30 μl/min. Then, ferulic acid was injected over the reference and BSA surfaces at a flow rate of […] cycle consisted of a 2-min waiting period for monitoring of the baseline stability. Then the ferulic acid/BSA complex was allowed to associate and dissociate for 3-min and 3-min, respectively, and 20 mM NaOH (30 s) was used as the regeneration solution. The data was processed by subtracting from reference flow cell and blank injections—double referencing method.

HSA, sequence (P02768 25-609): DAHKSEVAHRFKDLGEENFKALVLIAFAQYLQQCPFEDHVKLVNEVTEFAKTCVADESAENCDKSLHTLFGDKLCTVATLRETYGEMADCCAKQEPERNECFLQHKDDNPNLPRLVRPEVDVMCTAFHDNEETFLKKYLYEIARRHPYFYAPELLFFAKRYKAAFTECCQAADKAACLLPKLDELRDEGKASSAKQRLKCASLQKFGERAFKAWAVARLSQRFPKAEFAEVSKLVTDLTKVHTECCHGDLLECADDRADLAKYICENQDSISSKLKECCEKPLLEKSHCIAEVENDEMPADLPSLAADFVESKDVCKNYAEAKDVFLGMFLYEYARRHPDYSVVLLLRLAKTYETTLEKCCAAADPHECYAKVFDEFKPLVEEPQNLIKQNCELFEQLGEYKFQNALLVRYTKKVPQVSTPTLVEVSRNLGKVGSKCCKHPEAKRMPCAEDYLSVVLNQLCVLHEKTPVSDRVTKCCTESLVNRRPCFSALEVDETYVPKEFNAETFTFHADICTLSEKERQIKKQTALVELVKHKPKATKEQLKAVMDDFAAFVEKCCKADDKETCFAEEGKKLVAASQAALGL
bovine serum albumin (BSA), sequence (P02769 25-607): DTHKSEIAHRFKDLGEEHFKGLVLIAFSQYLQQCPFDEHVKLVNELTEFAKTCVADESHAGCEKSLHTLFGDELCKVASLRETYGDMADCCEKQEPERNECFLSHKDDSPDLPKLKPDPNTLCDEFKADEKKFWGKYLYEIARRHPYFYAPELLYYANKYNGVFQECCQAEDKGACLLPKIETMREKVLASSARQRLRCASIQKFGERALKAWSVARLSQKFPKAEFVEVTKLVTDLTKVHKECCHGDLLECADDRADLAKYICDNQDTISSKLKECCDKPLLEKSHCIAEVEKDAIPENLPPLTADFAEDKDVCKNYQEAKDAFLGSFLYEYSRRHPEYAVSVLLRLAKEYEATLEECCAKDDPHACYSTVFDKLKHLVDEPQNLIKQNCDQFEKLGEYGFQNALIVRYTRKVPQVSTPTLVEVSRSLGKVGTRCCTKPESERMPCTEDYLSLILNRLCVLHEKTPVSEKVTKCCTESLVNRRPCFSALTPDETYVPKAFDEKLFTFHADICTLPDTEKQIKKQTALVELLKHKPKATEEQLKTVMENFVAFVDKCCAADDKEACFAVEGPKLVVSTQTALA

## CNC1(c2ccccc2Cl)CCCCC1=O (stereo not shown) [ketamine]
HSA
  Detection of opioid on HSA surface of NHC-CM5 chip: successfully detected

## CC(C)n1c[n+](C(C)C)c2ccccc21 [Compound 3a, 1,3-Diisopropylbenzimidazolium hydrogen carbonate]
[1]; THF, DCE
  Solubility in THF and DCE: mild solubility
[1]; ambient, in air
  Stability of the solid: bench-stable
[1]; ethanol, methanol
  Solubility in ethanol and methanol: soluble
[1]; water
  Solubility in water: highly soluble
[2]
  XPS spectra of NHC SAM on gold derived from the precursor, before vs after treatment: remained unchanged
[3]
  Maximum desorption temperature of NHC film from Au: 605 K

## CC(=O)Oc1ccc2c3c1O[C@H]1[C@@H](OC(C)=O)C=C[C@H]4[C@@H](C2)N(C)CC[C@@]341 [heroin]
HSA
  Detection of opioid on HSA surface of NHC-CM5 chip: successfully detected
HSA; lowest of 50, 100, 200, 400 μM
  Detectability at the lowest concentration: not detectable

## COc1cc(C=CC(=O)O)ccc1O [ferulic acid, 4-hydroxy-3-methoxycinnamic acid]
[4]
  Sensing of ferulic acid by BSA pre-immobilized NHC-CM5 surface: can sense
